Results published in patent US8883714B2, “Pharmaceutical compositions comprising GPR119 agonists which act as peptide YY (PYY) secretagogues” (Arena Pharmaceuticals, Inc., priority 2008, dated 2014).

Experiments:
[1] = tested on: plasma total PYY; experiment: Effect of oral GPR119 agonist on plasma total PYY in wild-type littermates (paper example); format: in vivo, wild-type mice; conditions: 20 mg/kg per orally; glucose bolus 3 g/kg; blood at 0 and 5 min
Description: (§1) GPR119-deficient male mice (Chu et al, Endocrinology (2007) 148:2601-2609) and wild-type littermates are fasted for 18 hours. Mice are administered per orally with vehicle (80% polyethylene glycol 400/10% ethanol/10% Tween 80) or with a GPR119 agonist in accordance with the present invention (Compound 1; (2-Fluoro-4-methanesulfonyl-phenyl)-{6-[4-(3-isopropyl-[1,2,4]oxadiazol-5-yl)-piperidin-1-yl]-5-nitro-pyrimidin-4-yl}-amine) at 20 mg/kg. Thirty minutes after treatment, blood (100 microliter) is collected via retro orbital vein of the eye (time 0 minutes) followed by a glucose bolus at 3 g/kg (per orally). Five minutes after delivering glucose, another blood sample (100 microliter) is collected (time 5 minutes). Plasma are collected after centrifugation and plasma total PYY levels are determined by using PYY EIA kit purchased from Phoenix Pharmaceuticals, Inc. (Peptide YY (PYY) (Rat, Mouse, Porcine, Canine) EIA kit, Catalog No. EK-059-03) according to instructions provided in the kit. It can be further shown that functional GPR119 receptor is necessary for the administered GPR119 agonist to increase plasma total PYY in the mice. […] Compound 1 is identical to a compound disclosed in International Patent Application No. PCT/US2004/001267 (published as WO 2004/065380).

[2] = tested on: plasma total PYY; experiment: Effect of oral GPR119 agonist on plasma total PYY in GPR119-deficient (knockout) mice (paper example); format: in vivo, GPR119-deficient male mice; conditions: 20 mg/kg per orally; glucose bolus 3 g/kg; blood at 0 and 5 min
Description: as §1

[3] = tested on: plasma total PYY; experiment: Effect of oral GPR119 agonist on plasma total PYY in wild-type mice (PYY EIA kit); format: in vivo, C57BL/6 male mice; conditions: 10 mg/kg per orally; fasted 18 h; glucose bolus 3 g/kg 30 min after treatment; blood at 0, 2, 5, 10 min; FIG. 3
Description: C57BL/6 male mice (approximately 8 weeks of age; obtained from Harlan, Indianapolis, Ind.) were fasted for 18 hours, and randomly assigned into eight groups with n=6 for each group. Mice were administered per orally with vehicle (80% polyethylene glycol 400/10% Tween 80/10% ethanol) or with a GPR119 agonist (Compound 1; (2-Fluoro-4-methanesulfonyl-phenyl)-{6-[4-(3-isopropyl-[1,2,4]oxadiazol-5-yl)-piperidin-1-yl]-5-nitro-pyrimidin-4-yl}-amine) at 10 mg/kg, as indicated in FIG. 3. Thirty minutes after treatment, a glucose bolus at 3 g/kg was delivered per orally, and blood was collected at 0 minute (no glucose bolus), 2 minutes, 5 minutes, and 10 minutes after glucose bolus. Plasma total PYY (inclusive of PYY1-36 and PYY3-36) levels were determined by using a PYY EIA kit purchased from Phoenix Pharmaceuticals, Inc. (Peptide YY (PYY) (Rat, Mouse, Porcine, Canine) EIA kit, Catalog No. EK-059-03) according to instructions provided in the kit. […] From the results shown in FIG. 3, it is apparent that the GPR119 agonist (Compound 1) stimulated plasma total PYY in the mice. Compound 1 is identical to a compound disclosed in International Patent Application No. PCT/US2004/001267 (published as WO 2004/065380).

[4] = target: T1, human GPR119 receptor (Homo sapiens, UniProt Q8TDV5); experiment: cAMP assay (Flash Plate adenylyl cyclase kit) in GPR119-transfected HEK293 cells; format: cell-based; conditions: GPR119-transfected HEK293 cells vs empty vector; 60 min at room temperature; FIG. 2
T1 construct: Full-Length Cloning of Endogenous Human GPR119; expressed in transfected cells; host or cells: HEK293 cells, transient transfection with Lipofectamine
T1 sequence (Q8TDV5 1-335): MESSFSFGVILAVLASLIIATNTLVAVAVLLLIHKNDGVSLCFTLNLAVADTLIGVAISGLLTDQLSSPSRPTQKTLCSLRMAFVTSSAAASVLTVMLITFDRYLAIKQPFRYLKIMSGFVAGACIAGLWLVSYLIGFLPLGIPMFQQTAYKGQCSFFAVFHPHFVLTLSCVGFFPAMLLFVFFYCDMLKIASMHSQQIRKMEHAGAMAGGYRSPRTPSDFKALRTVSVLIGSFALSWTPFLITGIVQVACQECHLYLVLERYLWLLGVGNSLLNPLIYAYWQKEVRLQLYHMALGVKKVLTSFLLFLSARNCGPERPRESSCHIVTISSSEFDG
Description: Briefly, HEK293 cells were transfected with either empty vector DNA (“Vector”) or human GPR119 receptor expression plasmid DNA (“GPR119”) using Lipofectamine (Invitrogen, Carlsbad, Calif.). After 24 h, transfected cells were harvested in GIBCO (Gaithersburg, Md.) cell dissociation buffer (Catalog no. 13151-014) and resuspended in assay buffer (50% 1×PBS/50% stimulation buffer). Compound 1 was incubated with 10^5 cells per well for 60 min at room temperature. After another 2-h incubation with tracer in detection buffer, plates were counted in a Wallac (Gaithersburg, Md.) MicroBeta scintillation counter. Values of cAMP per well were extrapolated from a standard cAMP curve that was included on each assay plate.

[5] = humans, cited from earlier work

| agonist activity at GPR119 receptor (stimulation of cAMP accumulation) [4] | Compound | effect on plasma total PYY in wild-type mice [1] | effect on plasma total PYY in GPR119-deficient mice [2] | effect on plasma total PYY (inclusive of PYY1-36 and PYY3-36) [3] | time of decline of serum PYY3-36 to basal levels ([5]; after infusion) [min] | time to peak serum levels of PYY3-36 ([5]; infusion to reach normal postprandial circulatory concentrations) [min] | reduction of food intake ([5]; infusion, over 24 hours) [%] |
| --- | --- | --- | --- | --- | --- | --- | --- |
| agonist of GPR119 receptor | CC(C)c1noc(C2CCN(c3ncnc(Nc4ccc(S(C)(=O)=O)cc4F)c3[N+](=O)[O-])CC2)n1 [Compound 1, (2-Fluoro-4-methanesulfonyl-phenyl)-{6-[4-(3-isopropyl-[1,2,4]oxadiazol-5-yl)-piperidin-1-yl]-5-nitro-pyrimidin-4-yl}-amine] | stimulate plasma total PYY in the wild-type mice | not in the GPR119-deficient mice | increased plasma total PYY |  |  |  |
|  | PYY3-36: generated from PYY1-36 by cleavage of the N-terminal Tyr and Pro residues by dipeptidyl peptidase IV; high-affinity Y2R selective agonist |  |  |  | ≤ 30 | ≤ 15 | 33 |
